This passage reports EC50 and CC50 results from US11639350B2, “Heteroaryldihydropyrimidine derivatives and methods of treating hepatitis B infections” (Janssen Pharmaceutica NV, priority 2018, dated 2023).

For data set [1], the system named is HBV. Briefly: HBV inhibitory activity: HBV DNA in the culture medium of HepG2.2.15 cells by q-PCR. Type of data set: cell-based. The following applies: Hepatitis B virus, HepG2.2.15, 144 h, HepG2.2.15 cells, 6 days of compound treatment, HBV DNA in culture medium by q-PCR, highest concentration 10 μM; read-out: EC50. Here is the method:
(§1) HBV replication inhibition by the compounds of this invention as well as cytotoxicity determination was determined in cells infected or transfected with HBV, or cells with stably integrated HBV, such as HepG2.2.15 cells (Sells et al. 1987). The method used herein is as follows.
(§2) The HepG2.2.15 cells were seeded into 96-well plate in 2% FBS (Fetal bovine serum) culture medium at the density of 40,000 cells/well and 5,000 cells/well for HBV inhibitory activity and cytotoxicity determination, respectively. After seeding, the cell plates were incubated at 37° C., 5% CO2 overnight. The next day, medium containing compounds were added to treat the cells for 6 days with medium refreshed once in the middle of the treatment. Eight dose points with 3 folds dilution of each compound were adopted and the highest concentration of the compounds was 10 μM and 100 μM for HBV inhibitory activity and cytotoxicity determination, respectively.
The HBV DAN change in the cell culture medium induced by the compounds was measured by q-PCR (quantitative polymerase chain reaction) method. The HBV DNA in the culture medium was extracted using QIAamp 96 DNA Blood Kit according to the manual and then quantified by q-PCR using the primers and probe in the table below: […]
(§3) EC50 and CC50 values are calculated by the GraphPad Prism software and are averages where multiple measurements were made. EC50 values for the other exemplified compounds were either not measured or higher than 1 μM.

The nature of data set [2]: Cytotoxicity determination in HepG2.2.15 cells (CCK-8). The following applies: human, 6 days of compound treatment, CCK-8, highest concentration 100 μM. Type of data set: cell-based. The method, then: as §1, §2
After 6 days of compounds treatment, 20 μl CCK-8 (Cell Counting Kit-8 (Tianjin Biolite company)) reagents were added to each well of cytotoxicity assay plates, the plate was incubated at 37° C., 5% CO2 for 2.5 hours and the absorbance at 450 nm wavelength was measured, at the same time the absorbance at 630 nm wavelength was read as reference.
as §3

By EC50 is commonly meant the concentration at which the effect is half-maximal. The term CC50 denotes the concentration that lowers cell viability or growth by half. The low end stands for greater toxicity to the cells, the high end for lower toxicity to the cells. In the case of `COC(=O)C1=C(C2CCN(S(=O)(=O)[C@H]3CC[C@H](CC(=O)O)CC3)CC2)NC(c2nccs2)=NC1c1ccc(F)cc1Cl` (relative stereo) [Compound 476A, (trans)-2-(4-((4-(6-(2-Chloro-4-fluorophenyl)-5-(methoxycarbonyl)-2-(thiazol-2-yl)-3,6-dihydropyrimidin-4-yl)piperidin-1-yl)sulfonyl)cyclohexyl)acetic Acid], the EC50 in data set [1] was 14 nM. In data set [2], this molecule came in with a CC50 at 6 days of 30400 nM.

Turning to `COC(=O)C1=C(C2CCN(S(=O)(=O)[C@H]3CC[C@@H](CC(=O)O)CC3)CC2)NC(c2nccs2)=NC1c1ccc(F)cc1Cl` (relative stereo) [Compound 476B, (cis)-2-(4-((4-(6-(2-Chloro-4-fluorophenyl)-5-(methoxycarbonyl)-2-(thiazol-2-yl)-3,6-dihydropyrimidin-4-yl)piperidin-1-yl)sulfonyl)cyclohexyl)acetic Acid], the EC50 in data set [1] stood at 44 nM. For the same molecule, the CC50 at 6 days in data set [2] is 30200 nM.

As to `COC(=O)C1=C(C2CCN(S(=O)(=O)[C@H]3CC[C@H](CC(=O)O)CC3)CC2)NC(c2nccs2)=NC1c1ccc(F)c(F)c1Cl` (relative stereo) [Compound 478A, (trans)-2-(4-((4-(6-(2-Chloro-3,4-difluorophenyl)-5-(methoxycarbonyl)-2-(thiazol-2-yl)-3,6-dihydropyrimidin-4-yl)piperidin-1-yl)sulfonyl)cyclohexyl)acetic Acid], in data set [1], the EC50 turned out to be 21 nM. For the same molecule, the midpoint of cytotoxicity in data set [2], the CC50 at 6 days, lay at 9900 nM.

On to `COC(=O)C1=C(C2CCN(C(C)=O)CC2)NC(c2nccs2)=NC1c1ccc(F)cc1Cl` (single isomer, unassigned) [Compound 2B, Methyl 6-(1-acetylpiperidin-4-yl)-4-(2-chloro-4-fluorophenyl)-2-(thiazol-2-yl)-1,4-dihydropyrimidine-5-carboxylate], for which the EC50 in data set [1] amounted to 338 nM. The molecule further registered a CC50 at 6 days in data set [2] of over 100000 nM.

Consider `COC(=O)C1=C(C2CCN(C)C(=O)C2)NC(c2nccs2)=NC1c1cccc(F)c1Cl` (single isomer, unassigned) [Compound 4B, Methyl 4-(2-chloro-3-fluorophenyl)-6-(1-methyl-2-oxopiperidin-4-yl)-2-(thiazol-2-yl)-1,4-dihydropyrimidine-5-carboxylate], for which the EC50 in data set [1] was 351 nM. In data set [2], the cytotoxic concentration (CC50) at 6 days is over 10000 nM.

`COC(=O)C1=C([C@H]2CC[C@H](C(=O)OC)CC2)NC(c2nccs2)=NC1c1cccc(F)c1Cl` (single isomer, unassigned) [Compound 16X, Methyl 4-(2-chloro-3-fluorophenyl)-6-(trans-4-(methoxycarbonyl)-cyclohexyl)-2-(thiazol-2-yl)-1,4-dihydropyrimidine-5-carboxylate]: in data set [1], the EC50 turned out to be 49 nM. In data set [2], this molecule gave a CC50 at 6 days of 29300 nM.

Regarding `COC(=O)C1=C([C@H]2CC[C@H](C(=O)O)CC2)NC(c2nccs2)=NC1c1ccc(F)cc1Cl` (single isomer, unassigned) [Compound 19, trans-4-(6-(2-Chloro-4-fluorophenyl)-5-(methoxycarbonyl)-2-(thiazol-2-yl)-3,6-dihydropyrimidin-4-yl)cyclohexanecarboxylic Acid], the half-maximal effective concentration (EC50) in data set [1] is 62 nM. This molecule also had a CC50 at 6 days in data set [2] of 8700 nM.

For the molecule `CCOC(=O)C1=C([C@H]2CC[C@H](C(=O)OC)CC2)NC(c2nccs2)=NC1c1ccc(F)cc1Cl` (single isomer, unassigned) [Compound 20X, Ethyl 4-(2-chloro-4-fluorophenyl)-6-(trans-4-(methoxycarbonyl)-cyclohexyl)-2-(thiazol-2-yl)-1,4-dihydropyrimidine-5-carboxylate], the 50% effective concentration (EC50) in data set [1] came to 52 nM. Besides, the CC50 at 6 days in data set [2] came to 27200 nM.

Turning to `CCOC(=O)C1=C([C@H]2CC[C@H](C(=O)O)CC2)NC(c2nccs2)=NC1c1ccc(F)cc1Cl` (single isomer, unassigned) [Compound 21, trans-4-(6-(2-Chloro-4-fluorophenyl)-5-(ethoxycarbonyl)-2-(thiazol-2-yl)-3,6-dihydropyrimidin-4-yl)cyclohexanecarboxylic Acid], in data set [1], the EC50 turned out to be 31 nM. In addition, the CC50 at 6 days in data set [2] was determined as 9900 nM.

For `CCOC(=O)C1=C([C@H]2CC[C@H](C(=O)O)CC2)NC(c2nccs2)=NC1c1cccc(F)c1Cl` (single isomer, unassigned) [Compound 23, trans-4-(6-(2-Chloro-3-fluorophenyl)-5-(ethoxycarbonyl)-2-(thiazol-2-yl)-3,6-dihydropyrimidin-4-yl)cyclohexanecarboxylic Acid], the EC50 in data set [1] stood at 566 nM. Also, the CC50 at 6 days in data set [2] turned out to be 47500 nM.

With `COC(=O)C1=C([C@H]2CCC[C@@H](C(=O)OC)C2)NC(c2nccs2)=NC1c1cccc(F)c1Cl` (single isomer, unassigned) [Compound 24Q, cis-Methyl 4-(2-chloro-3-fluorophenyl)-6-(3-(methoxycarbonyl)-cyclohexyl)-2-(thiazol-2-yl)-1,4-dihydropyrimidine-5-carboxylate], in data set [1], the EC50 was 964 nM. This molecule also registered a CC50 at 6 days in data set [2] of 3520 nM.

Turning to `COC(=O)C1=C(C2C3CCC2CN(S(C)(=O)=O)C3)NC(c2nccs2)=NC1c1cccc(F)c1Cl` (single isomer, unassigned) [Compound 37B, Methyl 4-(2-chloro-3-fluorophenyl)-6-(3-(methylsulfonyl)-3-azabicyclo[3.2.1]octan-8-yl)-2-(thiazol-2-yl)-1,4-dihydropyrimidine-5-carboxylate], in data set [1], the EC50 was 129 nM. Besides, the CC50 at 6 days in data set [2] was 5900 nM.

As for `COC(=O)C1=C(C2CC3CCC(C2)N3S(C)(=O)=O)NC(c2nccs2)=NC1c1ccc(F)cc1Cl` (single isomer, unassigned) [Compound 38B, 4-(2-Chloro-4-fluoro-phenyl)-6-(8-methanesulfonyl-8-aza-bicyclo[3.2.1]oct-3-yl)-2-thiazol-2-yl-1,4-dihydro-pyrimidine-5-carboxylic Acid Methyl Ester], the EC50 in data set [1] was determined as 239 nM. For the same molecule, it took 34100 nM to reach half-maximal cytotoxicity in data set [2] (CC50 at 6 days).

For the molecule `COC(=O)C1=C(C2CC3CCC(C2)N3S(C)(=O)=O)NC(c2nccs2)=NC1c1cccc(F)c1Cl` (single isomer, unassigned) [Compound 39B, 4-(2-Chloro-3-fluoro-phenyl)-6-(8-methanesulfonyl-8-aza-bicyclo[3.2.1]oct-3-yl)-2-thiazol-2-yl-1,4-dihydro-pyrimidine-5-carboxylic Acid Methyl Ester], in data set [1], the EC50 came out at 101 nM. The CC50 at 6 days in data set [2] was determined as 30600 nM.

For `CCOC(=O)C1=C(C2[C@H]3CN(S(C)(=O)=O)C[C@@H]23)NC(c2nccs2)=NC1c1ccc(F)cc1Cl` (single isomer, unassigned) [Compound 41A], in data set [1], the EC50 was 514 nM. For the same molecule, it took 11600 nM to reach half-maximal cytotoxicity in data set [2] (CC50 at 6 days).

In the case of `CCOC(=O)C1=C(C2CCCCC2)NC(c2nccs2)=NC1c1ccc(F)cc1Cl` (single isomer, unassigned) [Compound 47A, Ethyl 4-(2-chloro-4-fluorophenyl)-6-cyclohexyl-2-(thiazol-2-yl)-1,4-dihydro-pyrimidine-5-carboxylate], the EC50 in data set [1] stood at 276 nM. It took 30900 nM to reach half-maximal cytotoxicity in data set [2] (CC50 at 6 days).

With `COC(=O)C1=C(C2CCCCO2)NC(c2nccs2)=NC1c1ccc(F)cc1Cl` (single isomer, unassigned) [Compound 49C, Methyl 4-(2-chloro-4-fluorophenyl)-6-(tetrahydro-2H-pyran-2-yl)-2-(thiazol-2-yl)-1,4-dihydropyrimidine-5-carboxylate], in data set [1], the EC50 is 202 nM. The molecule further showed a CC50 at 6 days in data set [2] of 84600 nM.

`COC(=O)C1=C(C2CCOCC2)NC(c2nccs2)=NC1c1cccc(F)c1Cl` (single isomer, unassigned) [Compound 50B, 4-(2-Chloro-3-fluoro-phenyl)-6-(tetrahydro-pyran-4-yl)-2-thiazol-2-yl-1,4-dihydro-pyrimidine-5-carboxylic acid methyl ester]: in data set [1], the EC50 was determined as 270 nM. Further, half-maximal cytotoxicity in data set [2] (CC50 at 6 days) was put at 35600 nM.

`COC(=O)C1=C(C2CCOCC2)NC(c2nccs2)=NC1c1ccc(F)cc1Cl` (single isomer, unassigned) [Compound 51B, Methyl 4-(2-chloro-4-fluorophenyl)-6-(tetrahydro-2H-pyran-4-yl)-2-(thiazol-2-yl)-1,4-dihydropyrimidine-5-carboxylate]: the EC50 in data set [1] was found to be 467 nM. Besides, the 50% cytotoxic concentration (CC50) at 6 days in data set [2] is over 100000 nM.

For `COC(=O)C1=C(C2CCN(S(C)(=O)=O)CC2)NC(c2c(F)cc(F)cc2F)=NC1c1ccc(F)cc1Cl` (single isomer, unassigned) [Compound 54A, Methyl 4-(2-chloro-4-fluorophenyl)-6-(1-(methylsulfonyl)piperidin-4-yl)-2-(2,4,6-trifluorophenyl)-1,4-dihydropyrimidine-5-carboxylate], the EC50 in data set [1] came out at 19 nM. The molecule further showed a CC50 at 6 days in data set [2] of 31200 nM.
